Data set [1] relates to IL-15 induced STAT5 phosphorylation in human whole blood lymphocytes. As to the kind of experiment: HWB IL-15 Induced STAT5 Phosphorylation Assay. In kind it is cell-based. The note with it: Lymphocyte, IL-15 final 50 ng/ml, read-out: HWB_IL15 pSTAT5 IC50. In short, it runs like this:
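Heparinised human whole blood preincubated with compound (0.2% DMSO final) 45 min at 37° C, then stimulated with human IL-15 (50 ng/ml final) for 15 min. After lyse/fix and Perm Buffer III permeabilisation, stained overnight at 4° C with AlexaFluor647 anti-phospho-STAT5; read by flow cytometry gated on total lymphocytes.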

A short description of data set [2]: Stability of JAK3 Covalent Inhibitors in Human Whole Blood. In kind it is in vitro ADME. The note with it: both sexes, 1 μM test compound, 37° C., 180 min incubation, read-out: Human blood stability t1/2. An outline of the steps: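 Compound at 1 μM final incubated in duplicate at 37° C for 180 min in fresh K2-EDTA whole blood […]. Samples quenched in acetonitrile with internal standard; LC-MS/MS peak area ratios gave % parent remaining over time.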

Data set [3] concerns IL-15 induced P-STAT5 in human PBMC. In words: PBMC IL-15 Induced P-STAT5. In kind it is cell-based. As to conditions: human PBMC, IL-15 final 41 ng/mL; read-out: PBMC IL15_pSTAT5_IC50. In short, it runs like this: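 Thawed human PBMC, rested in human plasma, were preincubated 15 min at 37 °C with compound (0.2% DMSO), then stimulated 15 min with IL-15 at 41 ng/mL final. After paraformaldehyde fixation and methanol permeabilisation, Alexa Fluor 647 anti-STAT5 staining overnight at 4 °C was analysed by flow cytometry on total lymphocytes.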

For `C=CC(=O)N1CC[C@@H](Nc2cnc3[nH]cc(C(=O)NCC)c3n2)[C@@H](C)C1` (racemic) [Example 37, Cis-racemic-2-{[(3S,4R)-1-acryloyl-3-methylpiperidin-4-yl]amino}-N-ethyl-5H-pyrrolo[2,3-b]pyrazine-7-carboxamide], the IC50 came to 1940 nM in data set [1] and 676 nM in data set [3]. The half-life at 1 μM in data set [2] amounted to 5.08 h.
In the same order, the values of `C=CC(=O)N1CC[C@@H](Oc2cnc3[nH]cc(C(=O)N[C@@H](C)COC)c3n2)C[C@@H]1C` (single isomer, unassigned) [Example 73] are 738 nM, 174 nM and over 6 h.
In the same order, the values of `C=CC(=O)N1CC[C@@H](Oc2cnc3[nH]cc(C(=O)N[C@@H](C)COC)c3n2)C[C@@H]1C` (racemic) [Example 71, Trans-racemic-2-{[1-acryloyl-2-methylpiperidin-4-yl]oxy}-N-[(2S)-1-methoxypropan-2-yl]-5H-pyrrolo[2,3-b]pyrazine-7-carboxamide] are 931 nM, 260 nM and 5.15 h.
For the compound `C=CC(=O)N1CC[C@H](Nc2cnc3[nH]cc(C(=O)NCC)c3n2)C[C@H]1C` (racemic) [Example 40, Trans-racemic-2-{[(2R,4S)-1-acryloyl-2-methylpiperidin-4-yl]amino}-N-ethyl-5H-pyrrolo[2,3-b]pyrazine-7-carboxamide], the results for the IC50 in data set [1] and in data set [3] were 842 nM and 134 nM, respectively. The half-life at 1 μM in data set [2] is 4.05 h.
Consider `C=CC(=O)N1CCC(Oc2cnc3[nH]cc(C(=O)NC(C)C4CC4)c3n2)CC1` (racemic) [Example 220, Racemic-2-[(1-acryloylpiperidin-4-yl)oxy]-N-(1-cyclopropylethyl)-5H-pyrrolo[2,3-b]pyrazine-7-carboxamide], for which the IC50 in data set [1] is 1070 nM; in data set [3] it was 100 nM. In addition, the half-life at 1 μM in data set [2] was 3.7 h.
`C=CC(=O)N1CC[C@@H](Nc2cnc3[nH]cc(C(=O)NCC)c3n2)[C@@H](C)C1` (single isomer, unassigned) [Example 38]: the IC50 amounted to 1160 nM in data set [1] and 205 nM in data set [3]. The half-life at 1 μM in data set [2] is 4.38 h.
In the same order, the values of `C=CC(=O)N1CCC(Nc2cnc3[nH]cc(C(=O)NCc4ccc(F)c(C#N)c4)c3n2)CC1` [Example 189, 2-[(1-acryloylpiperidin-4-yl)amino]-N-(3-cyano-4-fluorobenzyl)-5H-pyrrolo[2,3-b]pyrazine-7-carboxamide] are 1140 nM, 203 nM and over 6 h.
In the same order, the values of `C=CC(=O)N1CC[C@H](Nc2cnc3[nH]cc(C(=O)NCC(F)(F)F)c3n2)[C@H](OC)C1` [Example 293, 2-{[(3R,4S)-1-acryloyl-3-methoxypiperidin-4-yl]amino}-N-(2,2,2-trifluoroethyl)-5H-pyrrolo[2,3-b]pyrazine-7-carboxamide] are 818 nM, 218 nM and 3.4 h.
With `C=CC(=O)N1C[C@H](COCCC#N)C[C@H](Nc2ncnc3[nH]ccc23)C1` [Example 101, 3-{[(3R,5S)-1-Acryloyl-5-(7H-pyrrolo[2,3-d]pyrimidin-4-ylamino)piperidin-3-yl]methoxy}propanenitrile], the IC50 in data set [1] was determined as 703 nM; in data set [3] it was 227 nM. Also, the half-life at 1 μM in data set [2] came out at 1.9 h.
In the same order, the values of `C=CC(=O)N1CCC(C)(Nc2cnc3[nH]cc(C(=O)NC4CCC4)c3n2)CC1` [Example 324, 2-[(1-acryloyl-4-methylpiperidin-4-yl)amino]-N-cyclobutyl-5H-pyrrolo[2,3-b]pyrazine-7-carboxamide] are 1270 nM, 203 nM and 4.3 h.
In the same order, the values of `C=CC(=O)N1CCN(c2cnc3[nH]cc(C(=O)N[C@@H](C)COC)c3n2)CC1(C)C` [Example 298, 2-(4-acryloyl-3,3-dimethylpiperazin-1-yl)-N-[(2S)-1-methoxypropan-2-yl]-5H-pyrrolo[2,3-b]pyrazine-7-carboxamide] are 1280 nM, 210 nM and over 6 h.
For the compound `C=CC(=O)N1CCC(Nc2cnc3[nH]cc(C(=O)NCc4ccccc4F)c3n2)CC1` [Example 196, 2-[(1-acryloylpiperidin-4-yl)amino]-N-(2-fluorobenzyl)-5H-pyrrolo[2,3-b]pyrazine-7-carboxamide], the IC50 in data set [1] turned out to be 362 nM; in data set [3], 54.7 nM. For the same compound, the half-life at 1 μM in data set [2] is over 6 h.
In the same order, the values of `C=CC(=O)N1CC[C@H](Nc2cnc3[nH]cc(C(=O)NCC4CCCC4)c3n2)[C@H](OC)C1` [Example 284, 2-{[(3R,4S)-1-acryloyl-3-methoxypiperidin-4-yl]amino}-N-(cyclopentylmethyl)-5H-pyrrolo[2,3-b]pyrazine-7-carboxamide] are 819 nM, 186 nM and over 6 h.
For the compound `C=CC(=O)N1CCC(Nc2cnc3[nH]cc(C(=O)NCC4CC4)c3n2)CC1` [Example 172, 2-[(1-acryloylpiperidin-4-yl)amino]-N-(cyclopropylmethyl)-5H-pyrrolo[2,3-b]pyrazine-7-carboxamide], the results for the IC50 in data set [1] and in data set [3] were 322 nM and 81.3 nM, respectively. Besides, the half-life at 1 μM in data set [2] was 5.43 h.
In the same order, the values of `C=CC(=O)N1CCC(Oc2cnc3[nH]cc(C(=O)NC4CCCC4(F)F)c3n2)CC1` (stereo not drawn) [Example 219, 2-[(1-acryloylpiperidin-4-yl)oxy]-N-(2,2-difluorocyclopentyl)-5H-pyrrolo[2,3-b)pyrazine-7-carboxamide] are 889 nM, 134 nM and 4.05 h.
Take `C=CC(=O)N1CCC(Oc2cnc3[nH]cc(C(=O)N[C@H]4CC[C@@H](F)C4)c3n2)CC1` [Example 225, 2-[(1-acryloylpiperidin-4-yl)oxy]-N-[(1S,3R)-3-fluorocyclopentyl]-5H-pyrrolo[2,3-b]pyrazine-7-carboxamide]: the figures for the IC50 in data set [1] and in data set [3] were 772 nM and 170 nM, respectively. For the same compound, the half-life at 1 μM in data set [2] amounted to 3.93 h.
In the same order, the values of `C=CC(=O)N1CCN(c2cnc3[nH]cc(C(=O)N[C@@H](C)COC)c3n2)CC1` [Example 295, 2-(4-acryloylpiperazin-1-yl)-N-[(2S)-1-methoxypropan-2-yl]-5H-pyrrolo[2,3-b]pyrazine-7-carboxamide] are 199 nM, 71 nM and 2.22 h.
For the compound `C=CC(=O)N1CC[C@@H](Oc2cnc3[nH]cc(C(=O)NCC)c3n2)[C@H](C)C1` (single isomer, unassigned) [Example 47], the results for the IC50 in data set [1] and in data set [3] were 3580 nM and 363 nM, respectively. Further, the half-life at 1 μM in data set [2] is 1.8 h.
`C=CC(=O)N1CC[C@@H](Nc2cnc3[nH]cc(C(=O)NCC)c3n2)C[C@@H]1C` (single isomer, unassigned) [Example 42]: the IC50 in data set [1] came out at 1060 nM; in data set [3] it was 357 nM. In data set [2], the half-life at 1 μM came to 4.68 h.
In the same order, the values of `C=CC(=O)N1CCN(c2cnc3[nH]cc(C(=O)N[C@H](C)COC)c3n2)CC1(C)C` [Example 327] are 1040 nM, 261 nM and over 6 h.
For `C=CC(=O)N1CCC(Nc2cnc3[nH]cc(C(=O)NCCC4CC4)c3n2)CC1` [Example 178, 2-[(1-acryloylpiperidin-4-yl)amino]-N-(2-cyclopropylethyl)-5H-pyrrolo[2,3-b]pyrazine-7-carboxamide], the IC50 in data set [1] stood at 360 nM; in data set [3] it was 88.6 nM. Besides, the half-life at 1 μM in data set [2] amounted to 5.57 h.
For `C=CC(=O)N1CCC(N(C)c2cnc3[nH]cc(C(=O)NC(C)C)c3n2)CC1` [Example 64, 2-[(1-acryloylpiperidin-4-yl)(methyl)amino]-N-(propan-2-yl)-5H-pyrrolo[2,3-b]pyrazine-7-carboxamide], the IC50 in data set [1] amounted to 3130 nM; in data set [3], 228 nM. In addition, the half-life at 1 μM in data set [2] was 4.42 h.
For `C=CC(=O)N1CCC(Oc2cnc3[nH]cc(C(=O)N[C@@H](C)CC)c3n2)CC1` [Example 205, 2-[(1-acryloylpiperidin-4-yl)oxy]-N-[(2S)-butan-2-yl]-5H-pyrrolo[2,3-b]pyrazine-7-carboxamide], the IC50 in data set [1] amounted to 513 nM; in data set [3], 92.3 nM. The half-life at 1 μM in data set [2] is 4.17 h.
In the same order, the values of `C=CC(=O)N1CCC(Oc2cnc3[nH]cc(C(=O)N[C@@H](C)COC)c3n2)CC1` [Example 228, 2-[(1-acryloylpiperidin-4-yl)oxy]-N-[(2S)-1-methoxypropan-2-yl]-5H-pyrrolo[2,3-b]pyrazine-7-carboxamide] are 378 nM, 93.3 nM and 4.23 h.
In the case of `C=CC(=O)N1C[C@@H](CC#N)C[C@@H](Nc2ncnc3[nH]ccc23)C1` (racemic) [Example 105, Cis-racemic-[1-acryloyl-5-(7H-pyrrolo[2,3-d]pyrimidin-4-ylamino)piperidin-3-yl]acetonitrile], the IC50 in data set [1] turned out to be 1070 nM; in data set [3], 324 nM. Besides, in data set [2], the half-life at 1 μM is 2.3 h.
For the compound `C=CC(=O)N1CC[C@@H](Oc2cnc3[nH]cc(C(=O)NCC)c3n2)C[C@@H]1C` (single isomer, unassigned) [Example 79], the IC50 was 2710 nM in data set [1] and 264 nM in data set [3]. Moreover, the half-life at 1 μM in data set [2] worked out at 5.5 h.
